Key:
plasma creatinine = assay: Rat high-fat diet study: plasma creatinine; type: in vivo, Sprague Dawley male rats; conditions: HFD rats, once daily oral gavage in weeks four and five, fold change relative to group 3 (HFD reference), * = P < 0.05
Protocol: (§1) The Ethics Committee of Atatürk University approved all experimental protocols about animal care, handling and experimentation. All experiments were performed in accordance with relevant guidelines and regulations. 44 Sprague Dawley male rats (10-12 weeks old) weighing 375-415 g were obtained from Atatürk University Experimental Research Center (ATADEM) and housed at 22±2° C. with 50±5% humidity on a 12 hr light/dark cycle.
(§2) Chow diet (CD) and a high-fat diet (HFD) were used to fed the animals in this study. The CD was composed of wheat, wheat bran, rice polishing and fish meal, with approximately 25% proteins, 60% carbohydrates and 15% fat in terms of the caloric content. On the other hand, HFD was composed of normal food, beef tallow, sugar and condensed milk and contained approximately 14% proteins, 37% carbohydrates and 49% fat in terms of the caloric content.
(§3) Following 1-week habituation, the rats were separated into two groups: a control group (Group 1, n=4), which was fed with a regular CD; and the HFD group (n=40), which was fed with HFD. After three weeks, four rats in the HFD group (Group 2) were randomly sacrificed and the remaining 36 rats in the HFD group were randomly divided into nine sub-groups (Groups 3-11, four rats in each subgroup).
(§4) Groups 3-11 received the following treatments during weeks four and five: • Group 3 received only the HFD (reference) • Group 4 received the HFD and Serine (1000 mg/kg once daily by oral gavage) • Group 5 received the HFD and NAC (300 mg/kg once daily by oral gavage) • Group 6 received the HFD and L-Carnitine tartrate (LCAT) (100 mg/kg once daily by oral gavage) • Group 7 received the HFD and Nicotinamide riboside chloride (NRCl) (120 mg/kg once daily by oral gavage) • Group 8 received the HFD and Nicotinamide (NA) (120 mg/kg once daily by oral gavage) • Group 9 received the HFD, Serine (1000 mg/kg once daily by oral gavage), NAC (300 mg/kg once daily by oral gavage) and LCAT (100 mg/kg once daily by oral gavage) • Group 10 received the HFD, Serine (1000 mg/kg once daily by oral gavage), NAC (300 mg/kg once daily by oral gavage), LCAT (100 mg/kg/day) and NRCl (120 mg/kg once daily by oral gavage) • Group 11 received the HFD, Serine (1000 mg/kg once daily by oral gavage), NAC (300 mg/kg once daily by oral gavage), LCAT (100 mg/kg once daily by oral gavage) and NA (120 mg/kg once daily by oral gavage)
(§5) The body weight and food intake of the rats was recorded each week. After week five, all animals of groups 3-11 were anesthetized with isoflurane and sacrificed. Blood samples were collected from the abdominal aorta and centrifuged at 8000 rpm for 15 min at 4° C. The plasma was separated and stored at −80° C. until further analysis.
(§6) Plasma samples were thawed and analyzed for creatinine and uric acid.

plasma uric acid = assay: Rat high-fat diet study: plasma uric acid; type: in vivo, Sprague Dawley male rats; conditions: HFD rats, once daily oral gavage in weeks four and five, fold change relative to group 3 (HFD reference), * = P < 0.05
Protocol: as §1, §2, §3, §4, §5, §6

| Structure (SMILES) | Creatinine Fold change (plasma creatinine) | Uric Acid Fold change (plasma uric acid) |
| --- | --- | --- |
| NC(=O)c1ccc[n+]([C@@H]2O[C@H](CO)[C@@H](O)[C@H]2O)c1.[Cl-] [NRCl, Nicotinamide riboside chloride] | 0.83* | 0.64* |
| NC(=O)c1cccnc1 [NA, Nicotinamide] | 0.96 | 0.53* |
| N[C@@H](CO)C(=O)O [Serine] | 0.84* | 0.72* |
| CC(=O)N[C@@H](CS)C(=O)O [NAC, N-acetyl cysteine] | 0.85 | 0.76 |
| C[N+](C)(C)C[C@H](O)CC(=O)[O-].O=C(O)C(O)C(O)C(=O)O [LCAT, L-Carnitine tartrate] | 0.89 | 0.62* |
